In patent publication US20100048545A1, “Compounds and Compositions for Use in the Prevention and Treatment of Disorders of Fat Metabolism and Obesity” (INNODIA INC., priority 2006, published 2010):
“Also recorded” adds a separate entry of the source. Read-outs that look alike come from different tables or passages of the source.

What was measured:
[1] = tested on: DIO-mice; details: for food consumption: 4-OH 50 or 100 mg/kg
Source text: The objective of this study was to evaluate the effect of chronic administration of 4-hydroxyisoleucine (4-OH, compound 14a) and Rosiglitazone, administered alone or in combination, on food consumption and body weight gain of DIO-mice. Both parameters were monitored for 1 week prior to the commencement of treatment, then for the 28 days of treatment and for an additional 7 days post-treatment.
A total of 72 animals were used in the study. The animals were distributed into 6 groups (5 treated, 1 control group, all on high fat diet). Each group was composed of 12 animals. The mice were randomized according to body weight and basal glycemia values following a 5±0.5 hour fasting period.
For the four weeks of treatment, the test articles were dissolved in reverse osmosis water. 4-Hydroxyisoleucine was aliquoted and kept at 4° C. (administration to groups 2, 3, and 6), while Rosiglitazone was freshly prepared daily and kept at 4° C. between the AM and PM administration to groups 4, 5, and 6. Control animals received reverse osmosis water twice daily (group 1). Mice from groups 2 and 3 were treated twice daily with 4-OH at 50 and 100 mg/kg, respectively. Animals from groups 4 and 5 received 1.5 and 5 mg/kg of Rosiglitazone, respectively. […] All groups were treated by oral gavage. Treatment commenced on Day 0 and ended on Day 28 (FIGS. 18A and 18C.
Food consumption was measured and averaged on a weekly basis beginning one week before the start of treatment as shown in FIGS. 18B and 18D as week −1. Similarly, food consumption was monitored for one week after treatment was stopped and is shown as week 5 in FIGS. 18B and 18D, In FIG. 18B, the food consumption over time for various treatment groups is illustrated by the bar graph.

[2] = tested on: normal Wistar rats fed a high fat, high sucrose diet (HFHS); experiment: Prevention of weight gain in rat model of diet-induced obesity (HFHS diet), 28 days; details: 100 mg/kg twice daily oral; for weight gain: HFHS diet
Source text: The aim of this study was to evaluate the effect of chronic administration of 4-hydroxyisoleucine (4-OH, Compound 14a) on food consumption, tissue weight, and body weight gain of normal Wistar rats fed a high fat, high sucrose diet (HFHS).
The animals were acclimated for 1 week and fed standard chow prior to the commencement of treatment, then for the 28 days of the treatment the animals were fed a high fat, high sucrose diet (HFHS). A total of 30 animals were used in the study. The animals were distributed into 3 groups each composed of 10 animals: 1 group fed HFHS with treatment, 1 untreated control group fed standard chow, and 1 untreated group fed HFHS. Animals were housed separately and food consumption was monitored daily.
For the four weeks of treatment, the test compounds were dissolved in reverse osmosis water. 4-hydroxyisoleucine (4-OH) was aliquoted and kept at 4° C. Treated animals received twice daily oral administration of 4-OH at 100 mg/kg per dose. Control animals received water twice daily.

[3] = tested on: Diet Induced Obesity (DIO)-Mice; format: in vivo
Method: A total of 40 animals were used in the study. The animals were distributed into 5 groups (4 treated, 1 control group, all on high fat diet). Each group was composed of 8 animals.
4-OH was aliquoted and kept at 4° C. […] Mice from groups 4 and 5 were treated twice daily with 50 and 100 mg/kg of compound 65a. All groups were treated by oral gavage. Treatment commenced on Day 0 and ended on Day 7 (FIG. 37A). Body weights were measured daily.

C[C@@H]([C@H](C)O)[C@H](N)C(=O)O [Compound 14a, (2S,3R,4S)-4-Hydroxyisoleucine]
weight gain ([1]; 4-OH 100 mg/kg twice daily): Moderation of weight gain was observed | food consumption ([1]; first week of treatment, listed as 4-OH): food consumption decreased; also recorded: reduction in food consumption during the first week, but not after | food consumption ([1]; remainder of the treatment phase): consumption returned to pre-treatment levels | weight gain ([1]; Rosiglitazone 1.5 mg/kg with 4-OH 50 mg/kg, relative to the group treated with Rosiglitazone alone): able to modulate the weight gain induced by Rosiglitazone | epididymal and peri-renal adipose tissue [2]: reduction of epididymal and peri-renal adipose tissue | food consumption [2]: reduction in food consumption | muscle, brown fat, and organ weight [2]: not affected | tolerability of treatment [2]: well tolerated | weight gain [2]: prevention of weight gain | weight gain ([2]; listed as 4-OH): Moderation of weight gain was observed | tolerability of treatment ([3]; 50 and 100 mg/kg twice daily oral gavage, one week): well tolerated | weight gain ([3]; 50 and 100 mg/kg twice daily, first week of treatment): moderation of weight gain was observed | food consumption ([3]; first week of treatment): slight decrease in food consumption
